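Interpolation was linear, between the two tested concentrations surrounding the appropriate level; five concentrations were tested over 48 hours in 96-well plates. GI50: concentration for 50% inhibition of growth.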 Active and inactive are the calls of the source. No stated cut-off is given here; in the data, active = GI50 up to about 1.1 µM and inactive = higher.
Key:
Experiment in all cases: NCI-60 cell line screen, 48 h
[1] = test system: SF-539
[2] = test system: U-251
[3] = test system: TK-10
[4] = test system: SF-268
[5] = test system: M14
[6] = test system: MDA-MB-435
[7] = test system: SK-MEL-5
[8] = test system: A549
[9] = test system: A498
[10] = test system: T47D
[11] = test system: SK-MEL-2
[12] = test system: OVCAR-5
[13] = test system: IGROV-1
[14] = test system: UACC-257
[15] = test system: CAKI-1
[16] = test system: 786-0
[17] = test system: SK-OV-3
[18] = test system: NCI/ADR-RES
[19] = test system: ACHN
[20] = test system: COLO 205
[21] = test system: HT-29
[22] = test system: HCT-116
[23] = test system: SW-620
[24] = test system: HL-60
[25] = test system: EKVX
[26] = test system: MDA-MB-231
[27] = test system: NCI-H23
[28] = test system: SNB-75
[29] = test system: NCI-H522
[30] = test system: OVCAR-4
[31] = test system: UACC-62
[32] = test system: NCI-H460
[33] = test system: Malme-3M
[34] = test system: RXF 393
[35] = test system: NCI-H226
[36] = test system: RPMI-8226
[37] = test system: SF-295
[38] = test system: HCC 2998
[39] = test system: UO-31
[40] = test system: OVCAR-3
[41] = test system: MOLT-4
[42] = test system: SK-MEL-28
[43] = test system: SN12C
[44] = test system: SNB-19
[45] = test system: KM12
[46] = test system: MDA-N
[47] = test system: HCT-15
[48] = test system: OVCAR-8
[49] = test system: K562
[50] = test system: LOX IMVI
[51] = test system: MCF7
[52] = test system: CCRF-CEM
[53] = test system: HOP-62
[54] = test system: Hs-578T
[55] = test system: SR
[56] = test system: DU-145
[57] = test system: PC-3
[58] = test system: HOP-92

Measured: GI50

O=C(CC(O)(C(F)(F)F)C(F)(F)F)C(CCCl)C(O)(C(F)(F)F)C(F)(F)F (configuration not stated)
inactive: [1] 54.8 µM | [2] 35.6 µM | [3] 55.7 µM | [4] 30.7 µM | [5] 40.6 µM | [6] 62.7 µM | [7] 23.2 µM | [8] 35.6 µM | [9] 25.4 µM | [10] 26 µM | [11] 36.2 µM | [12] 44.2 µM | [13] 52.5 µM | [14] 30.8 µM | [15] 31.5 µM | [16] 32.7 µM | [17] 45.6 µM | [18] 9.89 µM | [19] 30.5 µM | [20] 13.8 µM | [21] 23.8 µM | [22] 26.7 µM | [23] 51.6 µM | [24] 16.6 µM | [25] 34.7 µM | [26] 65 µM | [27] 33.2 µM | [28] 24.9 µM | [29] 34.4 µM | [30] 49.2 µM | [31] 53.2 µM | [32] 15 µM | [33] 24.7 µM | [34] 21.1 µM | [35] 23.5 µM | [36] 16.7 µM | [37] 33.5 µM | [38] 43.8 µM | [39] 28.2 µM | [40] 11.5 µM | [41] 71.9 µM | [42] 57.3 µM | [43] 18.9 µM | [44] 34.5 µM | [45] 42.3 µM | [46] > 100 µM | [48] 27.9 µM | [49] 39.7 µM | [50] 55.7 µM | [51] 85.1 µM | [52] 39.9 µM | [53] 33.3 µM | [54] 67.6 µM | [55] 27.3 µM | [56] 39.7 µM | [57] 15.5 µM
34.3 µM: [47]

CCCCC1c2c([nH]c3ccccc23)C2C(=O)N(c3ccc(OC)cc3)C(=O)C2C1CCC (configuration not stated)
3.6 µM: [47]
inactive: [1] 2.24 µM | [2] 8.71 µM | [3] 4.37 µM | [4] 4.35 µM | [5] 3.06 µM | [6] 2.24 µM | [7] 5.38 µM | [8] 5.13 µM | [9] 3.4 µM | [10] > 10 µM | [11] 2.39 µM | [12] > 10 µM | [58] 3.03 µM | [13] 4.56 µM | [14] 3.61 µM | [15] 1.23 µM | [16] 4.39 µM | [17] > 10 µM | [18] 2.96 µM | [19] 5.7 µM | [20] 2.59 µM | [21] 3.13 µM | [22] 3.01 µM | [23] 3.95 µM | [24] 2.96 µM | [25] 3.56 µM | [26] 2.58 µM | [27] 3.89 µM | [28] 2.55 µM | [29] 6.28 µM | [30] 4.82 µM | [31] 2.29 µM | [32] 4.19 µM | [33] 4.44 µM | [34] 3.39 µM | [35] 5.02 µM | [36] 4.61 µM | [37] > 10 µM | [38] 3.47 µM | [39] 4.45 µM | [40] 3.36 µM | [41] 2.74 µM | [42] 5.4 µM | [43] 2.18 µM | [44] 8.59 µM | [45] 2.1 µM | [46] 3.02 µM | [48] 2.65 µM | [49] 3.29 µM | [50] > 10 µM | [52] 3.66 µM | [53] 3.69 µM | [54] 1.87 µM | [55] 4.75 µM | [56] 5.12 µM | [57] 2.6 µM

C=C1c2cc3c(cc2CC12Cc1cc4c(cc1C2=O)CCC4)CCC3 (configuration not stated)
> 100 µM: [47]
inactive: [1] > 100 µM | [2] > 100 µM | [3] > 100 µM | [4] > 100 µM | [5] > 100 µM | [6] > 100 µM | [7] > 100 µM | [8] > 100 µM | [9] > 100 µM | [10] > 100 µM | [11] > 100 µM | [12] > 100 µM | [58] > 100 µM | [13] > 100 µM | [14] > 100 µM | [15] > 100 µM | [16] > 100 µM | [17] > 100 µM | [18] > 100 µM | [19] > 100 µM | [21] > 100 µM | [22] > 100 µM | [23] > 100 µM | [24] > 100 µM | [25] > 100 µM | [26] > 100 µM | [27] > 100 µM | [28] > 100 µM | [29] > 100 µM | [30] > 100 µM | [32] > 100 µM | [33] > 100 µM | [34] > 100 µM | [36] > 100 µM | [37] > 100 µM | [38] > 100 µM | [39] > 100 µM | [40] > 100 µM | [41] > 100 µM | [42] > 100 µM | [44] > 100 µM | [46] > 100 µM | [48] > 100 µM | [49] > 100 µM | [50] > 100 µM | [51] > 100 µM | [52] > 100 µM | [53] > 100 µM | [54] > 100 µM | [55] 36.1 µM | [56] > 100 µM | [57] > 100 µM
